Source: patent publication US7608619B2, “Substituted oxazole compounds with analgesic activity” (Gruenenthal GmbH, priority 2005, dated 2009)

molecular target: T1, human μ-opiate receptor (Homo sapiens, UniProt P35372); assay: Affinity for the human μ-opiate receptor ([3H]-naloxone displacement, SPA, CHO-K1 membrane preparation); details: test substance 1 μmole/l; displacement of 1 nmole/l [3H]-naloxone; percentage inhibition of the specific binding
T1 construct: purchased Nen company, Zaventem, Belgium RB-HOM; host or cells: CHO-K1 cells (membrane preparation)
Protocol: Method for Determining the Affinity for the Human μ-Opiate Receptor
The receptor affinity for the human μ-opiate receptor is determined in a homogeneous batch in microtiter plates. For this purpose dilution series of the substances to be tested are incubated for 90 minutes at room temperature with a receptor membrane preparation (15-40 μg protein/250 μl incubation batch) of CHO-K1 cells, which express the human μ-opiate receptor (RB-HOM receptor membrane preparation from the Nen company, Zaventem, Belgium), in the presence of 1 nmole/l of the radioactive ligand [^3H]-naloxone (NET719, Nen company, Zaventem, Belgium) and 1 mg WGA-SPA beads (wheat germ agglutinin SPA beads from Amersham/Pharmacia, Freiburg, Germany) in a total volume of 250 μl. 50 mmole/l of Tris-HCl supplemented with 0.05% sodium azide and with 0.06% bovine serum albumin is used as incubation buffer. In order to determine the non-specific binding, 25 μmole/l of naloxone is additionally added. After the end of the 90 minutes' incubation time the microtiter plates are centrifuged for 20 minutes at 1000 g and the radioactivity is measured in a beta counter (Microbeta-Trilux, PerkinElmer Wallac, Freiburg, Germany). The percentage displacement of the radioactive ligand from its binding to the human μ-opiate receptor at a concentration of the test substances of 1 μmole/l is determined and is given as percentage inhibition of the specific binding.

T1 sequence (P35372 whole entry): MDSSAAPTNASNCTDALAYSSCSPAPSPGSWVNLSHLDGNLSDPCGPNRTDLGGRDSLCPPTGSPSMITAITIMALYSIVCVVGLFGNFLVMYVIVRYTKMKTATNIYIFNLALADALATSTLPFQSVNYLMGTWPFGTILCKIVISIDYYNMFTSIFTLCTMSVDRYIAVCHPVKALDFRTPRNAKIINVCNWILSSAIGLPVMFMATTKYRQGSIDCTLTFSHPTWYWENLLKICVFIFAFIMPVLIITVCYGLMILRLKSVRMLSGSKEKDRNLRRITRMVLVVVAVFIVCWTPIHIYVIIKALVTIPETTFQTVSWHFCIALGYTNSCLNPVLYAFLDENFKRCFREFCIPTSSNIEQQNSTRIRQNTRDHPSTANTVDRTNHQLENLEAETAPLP

Structure (SMILES) | μ-opioid receptor, % inhibition [1 μM]
CN(Cc1ccccc1)c1oc(C(C2CCC(C(c3ccc(Cl)cc3)N(C)C)CC2)N(C)c2ccccc2)nc1Cc1ccccc1 (centres unmarked) [compound 22, Benzyl-{4-benzyl-2-[{4-[(4-chlorophenyl)-dimethylaminomethyl]-cyclohexyl}-(methylphenylamine)-methyl]-oxazol-5-yl}-methylamine] | 64%
CN(CCc1ccccc1)c1oc(C(C2CCC(C(c3ccc(F)cc3)N(C)C)CC2)N(C)c2ccccc2)nc1Cc1ccccc1 (centres unmarked) [compound 38, {4-benzyl-2-[{4-[dimethylamino-(4-fluorophenyl)-methyl]-cyclohexyl}-(methylphenylamine)-methyl]-oxazol-5-yl}-methylphenethylamine] | 62%

same assay, conditions: test substance 1 μmole/l; displacement of 1 nmole/l [3H]-naloxone; percentage inhibition of the specific binding; read-out: μ-opioid receptor, % inhibition [1 μM]

Structure (SMILES) | inhibition at 1 µM
CN(C)C(c1ccc(F)cc1)C1CCC(C(c2nc(Cc3ccccc3)c(N3CCCC3)o2)N2CCCCC2)CC1 (centres unmarked) [compound 17, [{4-[(4-benzyl-5-pyrrolidin-1-yl-oxazol-2-yl)-piperidin-1-yl-methyl]-cyclohexyl}-(4-fluorophenyl)-methyl]-dimethylamine] | 76%
CN(C)C(c1ccc(F)cc1)C1CCC(C(c2nc(Cc3ccccc3)c(N3CCOCC3)o2)N(C)c2ccccc2)CC1 (centres unmarked) [compound 18, ((4-benzyl-5-morpholin-4-yl-oxazol-2-yl)-{4-[dimethylamino-(4-fluorophenyl)-methyl]-cyclohexyl}-methyl)-methylphenylamine] | 65%
CC1CCN(c2oc(C(C3CCC(C(c4ccc(F)cc4)N(C)C)CC3)N(C)c3ccccc3)nc2Cc2ccccc2)CC1 (centres unmarked) [compound 19, ([4-benzyl-5-(4-methylpiperidin-1-yl)-oxazol-2-yl]-{4-[dimethylamino-(4-fluorophenyl)-methyl]-cyclohexyl}-methyl)-methylphenylamine] | 63%
CCN(CC)C(c1nc(Cc2ccccc2)c(N2CCC(C)CC2)o1)C1CCC(C(c2ccc(Cl)cc2)N(C)C)CC1 (centres unmarked) [compound 20, ([4-benzyl-5-(4-methylpiperidin-1-yl)-oxazol-2-yl]-{4-[(4-chlorophenyl)-dimethylaminomethyl]-cyclohexyl}-methyl)-diethylamine] | 63%
CCN(CC)C(c1nc(Cc2ccccc2)c(N(C)Cc2ccccc2)o1)C1CCC(C(c2ccc(Cl)cc2)N(C)C)CC1 (centres unmarked) [compound 21, Benzyl-[4-benzyl-2-({4-[(4-chlorophenyl)-dimethylaminomethyl]-cyclohexyl}-diethylaminomethyl)-oxazol-5-yl]-methylamine] | 72%
CN(C)C(c1cccs1)C1CCC(C(c2nc(Cc3ccccc3)c(N3CCC(Cc4ccccc4)CC3)o2)N2CCCCC2)CC1 (centres unmarked) [compound 23, [(4-{[4-benzyl-5-(4-benzyl-piperidin-1-yl)-oxazol-2-yl]-piperidin-1-yl-methyl}-cyclohexyl)-thiophen-2-yl-methyl]-dimethylamine] | 70%
CC1CCN(c2oc(C(C3CCC(C(c4cccs4)N(C)C)CC3)N3CCCCC3)nc2Cc2ccccc2)CC1 (centres unmarked) [compound 24, [(4-{[4-benzyl-5-(4-methylpiperidin-1-yl)-oxazol-2-yl]-piperidin-1-yl-methyl}-cyclohexyl)-thiophen-2-yl-methyl]-dimethylamine] | 70%
CN(Cc1ccccc1)c1oc(C(C2CCC(C(c3cccs3)N(C)C)CC2)N2CCCCC2)nc1Cc1ccccc1 (centres unmarked) [compound 25, Benzyl-(4-benzyl-2-{[4-(dimethylamino-thiophen-2-yl-methyl)-cyclohexyl]-piperidin-1-yl-methyl}-oxazol-5-yl)-methylamine] | 80%
CN(C)C(c1cccs1)C1CCC(C(c2nc(Cc3ccccc3)c(N3CCN(c4ccccc4)CC3)o2)N2CCCCC2)CC1 (centres unmarked) [compound 26, [(4-{[4-benzyl-5-(4-phenylpiperazin-1-yl)-oxazol-2-yl]-piperidin-1-yl-methyl}-cyclohexyl)-thiophen-2-yl-methyl]-dimethylamine] | 85%
CCN(CC)C(c1nc(Cc2ccccc2)c(N2CCC(Cc3ccccc3)CC2)o1)C1CCC(C(c2cccs2)N(C)C)CC1 (centres unmarked) [compound 27, {[4-benzyl-5-(4-benzyl-piperidin-1-yl)-oxazol-2-yl]-[4-(dimethylamino-thiophen-2-yl-methyl)-cyclohexyl]-methyl}-diethylamine] | 78%
CCN(CC)C(c1nc(Cc2ccccc2)c(N2CCN(Cc3ccccc3)CC2)o1)C1CCC(C(c2cccs2)N(C)C)CC1 (centres unmarked) [compound 28, {[4-benzyl-5-(4-benzyl-piperazin-1-yl)-oxazol-2-yl]-[4-(dimethylamino-thiophen-2-yl-methyl)-cyclohexyl]-methyl}-diethylamine] | 72%
CCN(CC)C(c1nc(Cc2ccccc2)c(N2CCC(C)CC2)o1)C1CCC(C(c2cccs2)N(C)C)CC1 (centres unmarked) [compound 29, {[4-benzyl-5-(4-methylpiperidin-1-yl)-oxazol-2-yl]-[4-(dimethylamino-thiophen-2-yl-methyl)-cyclohexyl]-methyl}-diethylamine] | 95%
CCN(CC)C(c1nc(Cc2ccccc2)c(N(C)Cc2ccccc2)o1)C1CCC(C(c2cccs2)N(C)C)CC1 (centres unmarked) [compound 30, Benzyl-(4-benzyl-2-{diethylamino-[4-(dimethylaminothiophen-2-yl-methyl)-cyclohexyl]-methyl}-oxazol-5-yl)-methylamine] | 92%
CCN(CC)C(c1nc(Cc2ccccc2)c(N2CCN(c3ccccc3)CC2)o1)C1CCC(C(c2cccs2)N(C)C)CC1 (centres unmarked) [compound 31, {[4-benzyl-5-(4-phenylpiperazin-1-yl)-oxazol-2-yl]-[4-(dimethylamino-thiophen-2-yl-methyl)-cyclohexyl]-methyl}-diethylamine] | 62%
CN(C)C(c1cccs1)C1CCC(C(c2nc(Cc3ccccc3)c(N3CCC(Cc4ccccc4)CC3)o2)N2CCN(Cc3ccccc3)CC2)CC1 (centres unmarked) [compound 32, ({4-[[4-benzyl-5-(4-benzylpiperidin-1-yl)-oxazol-2-yl]-(4-benzylpiperazin-1-yl)-methyl]-cyclohexyl}-thiophen-2-yl-methyl)-dimethylamine] | 75%
CC1CCCN(c2oc(C(C3CCC(C(c4ccc(F)cc4)N(C)C)CC3)N3CCCCC3)nc2Cc2ccccc2)C1 (centres unmarked) [compound 33, [(4-{[4-benzyl-5-(3-methylpiperidin-1-yl)-oxazol-2-yl]-piperidin-1-yl-methyl}-cyclohexyl)-(4-fluorophenyl)-methyl]-dimethylamine] | 65%
CCN(CC)C(c1nc(Cc2ccccc2)c(N(C)CCc2ccccc2)o1)C1CCC(C(c2ccc(F)cc2)N(C)C)CC1 (centres unmarked) [compound 34, [4-benzyl-2-(diethylamino-{4-[dimethylamino-(4-fluorophenyl)-methyl]-cyclohexyl}-methyl)-oxazol-5-yl]-methylphenethylamine] | 84%
CCN(CC)c1oc(C(C2CCC(C(c3ccc(F)cc3)N(C)C)CC2)N(CC)CC)nc1Cc1ccccc1 (centres unmarked) [compound 35, [4-benzyl-2-(diethylamino-{4-[dimethylamino-(4-fluorophenyl)-methyl]-cyclohexyl}-methyl)-oxazol-5-yl]-diethylamine] | 61%
CCN(CC)C(c1nc(Cc2ccccc2)c(N2CCCC(C)C2)o1)C1CCC(C(c2ccc(F)cc2)N(C)C)CC1 (centres unmarked) [compound 36, ([4-benzyl-5-(3-methylpiperidin-1-yl)-oxazol-2-yl]-{4-[dimethylamino-(4-fluorophenyl)-methyl]-cyclohexyl}-methyl)-diethylamine] | 69%
CC1CC(C)CN(c2oc(C(C3CCC(C(c4ccc(F)cc4)N(C)C)CC3)N(C)c3ccccc3)nc2Cc2ccccc2)C1 (centres unmarked) [compound 37, ([4-benzyl-5-(3,5-dimethylpiperidin-1-yl)-oxazol-2-yl]-{4-[dimethylamino-(4-fluorophenyl)-methyl]-cyclohexyl}-methyl)-methylphenylamine] | 68%
CCN(CC)c1oc(C(C2CCC(C(c3ccc(Cl)cc3)N(C)C)CC2)N2CCCCC2)nc1Cc1ccccc1 (centres unmarked) [compound 39, [4-benzyl-2-({4-[(4-chlorophenyl)-dimethylaminomethyl]-cyclohexyl}-piperidin-1-yl-methyl)-oxazol-5-yl]-diethylamine] | 75%
CC1CCCN(c2oc(C(C3CCC(C(c4ccc(Cl)cc4)N(C)C)CC3)N3CCCCC3)nc2Cc2ccccc2)C1 (centres unmarked) [compound 40, [(4-{[4-benzyl-5-(3-methylpiperidin-1-yl)-oxazol-2-yl]-piperidin-1-yl-methyl}-cyclohexyl)-(4-chlorophenyl)-methyl]-dimethylamine] | 60%
CCN(CC)C(c1nc(Cc2ccccc2)c(N2CC(C)CC(C)C2)o1)C1CCC(C(c2ccc(Cl)cc2)N(C)C)CC1 (centres unmarked) [compound 41, ([4-benzyl-5-(3,5-dimethylpiperidin-1-yl)-oxazol-2-yl]-{4-[(4-chlorophenyl)-dimethylaminomethyl]-cyclohexyl}-methyl)-diethylamine] | 64%
CC1CC(C)CN(c2oc(C(C3CCC(C(c4ccc(Cl)cc4)N(C)C)CC3)N(C)c3ccccc3)nc2Cc2ccccc2)C1 (centres unmarked) [compound 42, ([4-benzyl-5-(3,5-dimethylpiperidin-1-yl)-oxazol-2-yl]-{4-[(4-chlorophenyl)-dimethylaminomethyl]-cyclohexyl}-methyl)-methylphenylamine] | 79%
